Values quoted from earlier work, collected in US20110124713A1, “SAM-II RIBOSWITCH AND USES THEREOF” (The Regents of the University of Colorado, A body Corporate, priority 2007, published 2011).

Test system: SAM-II riboswitch
Conditions: absence vs presence of SAM; nucleotides G8-U12 in L1

C[S+](CC[C@H](N)C(=O)O)C[C@H]1O[C@@H](n2cnc3c(N)ncnc32)[C@H](O)[C@@H]1O (stereo partly shown) [SAM, S-adenosylmethionine]
ligand-dependent protections in in-line probing: strong ligand-dependent protections
